Assay results from paper PMC5232348, “Molecular and Functional Characterization of Three Odorant-Binding Protein from Periplaneta americana” (PLoS ONE, 2017).
Where two headings read alike, the source gives them in different places.

Experiments:
PameOBP3 = PameOBP3 (Periplaneta americana, UniProt B6E9U9); assay: Competitive fluorescence binding assay (1-NPN displacement), recombinant PameOBP3
Excerpt: (§1) The PameOBPs were expressed by using Escherichia coli expression system. To generate properly folded protein, the signal peptide predicted by SignalIP 4.1 [18] was removed. The two PameOBPs were amplified by gene special primers (S1 Table) with the cDNA as the template. The purified PCR products were ligated into expression vector pGEX-4T-1 using In-Fusion® HD Cloning Kit (Clontech, Mountain View, CA) according to the manufacturer’s instructions. The recombinant plasmid was transformed into E. coli BL21 (DE3) cells, and then expression and purification was performed according to a previously reported protocol. Recombinant proteins in the supernatant were purified by an affinity chromatography column GSTrap FF (GE Healthcare, Piscataway, NJ, USA). The GST tags were cleaved from recombinant proteins using 400 μL of thrombin (1U/μL) while loaded on GSTrap FF column at 25°C for 10 h and allowed 12 h. After that, the recombinant proteins were eluted with PBS buffer. Finally, the eluted proteins were desalted using HiTrap Desalting (GE Healthcare), lyophilized, and stored at −80°C until use.
(§2) Emission fluorescence spectra were measured on a Hitachi F-4500 fluorescence spectrophotometer following our previous studies. Firstly, dissociation constants of the PameOBPs for N-phenyl-1-naphtylamine (1-NPN) were calculated to determine the suitability of 1-NPN as a fluorescence reporter. […] The binding data were analyzed following our previous studies.

PameOBP1 = PameOBP1 (Periplaneta americana, UniProt B6E9U7); assay: Competitive fluorescence binding assay (1-NPN displacement), recombinant PameOBP1
Excerpt: as §1, §2

PameOBP2 = PameOBP2 (Periplaneta americana, UniProt B6E9U8); assay: Competitive fluorescence binding assay (1-NPN displacement), recombinant PameOBP2
Excerpt: as §1, §2

[1] = 2 μM 1-NPN as fluorescent reporter, competitor 0.25–2.5 μM or 2–40 μM, read-out: PameOBP3 Ki
[2] = 2 μM 1-NPN as fluorescent reporter, competitor 0.25–2.5 μM or 2–40 μM, read-out: PameOBP1 Ki
[3] = 2 μM 1-NPN as fluorescent reporter, competitor 0.25–2.5 μM or 2–40 μM, read-out: PameOBP2 Ki
[4] = PameOBP1 Ki, 2 μM 1-NPN as fluorescent reporter, competitor 0.25–2.5 μM or 2–40 μM
[5] = PameOBP2 Ki, 2 μM 1-NPN as fluorescent reporter, competitor 0.25–2.5 μM or 2–40 μM
[6] = 2 μM 1-NPN as fluorescent reporter, competitor 0.25–2.5 μM or 2–40 μM, read-out: PameOBP1 IC50
[7] = 2 μM 1-NPN as fluorescent reporter, competitor 0.25–2.5 μM or 2–40 μM, read-out: PameOBP2 IC50

PameOBP2, sequence (B6E9U8 entry or part of it): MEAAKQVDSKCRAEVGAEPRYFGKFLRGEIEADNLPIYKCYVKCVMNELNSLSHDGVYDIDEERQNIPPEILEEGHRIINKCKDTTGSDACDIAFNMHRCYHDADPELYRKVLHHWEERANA
PameOBP3, sequence (B6E9U9 entry or part of it): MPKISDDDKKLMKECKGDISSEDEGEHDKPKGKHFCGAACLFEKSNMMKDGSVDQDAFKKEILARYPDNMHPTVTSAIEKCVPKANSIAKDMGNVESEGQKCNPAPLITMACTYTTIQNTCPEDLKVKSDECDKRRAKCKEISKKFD
PameOBP1, sequence (B6E9U7 entry or part of it): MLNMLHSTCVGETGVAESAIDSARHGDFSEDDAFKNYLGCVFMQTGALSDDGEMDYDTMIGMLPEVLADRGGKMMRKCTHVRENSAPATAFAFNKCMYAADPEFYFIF

| Compound | Ki (PameOBP3; [1]) [µM] | Ki (PameOBP1; [2]) [µM] | Ki (PameOBP2; [3]) [µM] | further results |
| --- | --- | --- | --- | --- |
| O=CCc1ccccc1 [phenylacetaldehyde] |  |  |  | Ki (PameOBP3): > 40 µM; Ki (PameOBP1; [4]): > 40 µM; Ki (PameOBP2; [5]): > 40 µM |
| O=Cc1ccccc1 [benzaldehyde] |  |  |  | Ki (PameOBP3): > 40 µM; Ki (PameOBP1; [4]): > 40 µM; Ki (PameOBP2; [5]): > 40 µM |
| C=C1CC/C=C(\C)CC[C@@H]2[C@@H]1CC2(C)C [beta-caryophyllene] |  |  |  | Ki (PameOBP3): > 40 µM; Ki (PameOBP1; [4]): > 40 µM; Ki (PameOBP2; [5]): > 40 µM |
| CCOC(=O)c1ccccc1 [ethyl benzoate] |  |  |  | Ki (PameOBP3): > 40 µM; Ki (PameOBP1; [4]): > 40 µM; Ki (PameOBP2; [5]): > 40 µM |
| CCOC(=O)CC [ethyl propionate] | > 40 | > 40 | > 40 |  |
| CCCCCCCCOC(C)=O [octyl acetate] | > 40 | > 40 | > 40 |  |
| CCCCCCCCCCCCCCCCCC [octadecane] | > 40 | > 40 | > 40 |  |
| c1ccc2ccccc2c1 [naphthalene] |  |  |  | Ki (PameOBP3): > 40 µM; Ki (PameOBP1; [4]): > 40 µM; Ki (PameOBP2; [5]): > 40 µM |
| CC1=CC[C@H](C(C)C)C=C1 [alpha-phellandrene] |  |  |  | Ki (PameOBP3): > 40 µM; Ki (PameOBP1; [4]): > 40 µM; Ki (PameOBP2; [5]): > 40 µM |
| CC(=O)/C=C/C1=C(C)CCCC1(C)C [Beta- ionone] |  |  |  | IC50 (PameOBP1): 15.8 ± 2.1 µM; Ki (PameOBP1; [4]): 14.4 ± 1.6 µM; IC50 (PameOBP2): 15 ± 1.1 µM; Ki (PameOBP2; [5]): 12.2 ± 0.9 µM |
| CCCC(=O)CC [3-hexanone] | > 40 | > 40 | > 40 |  |
| CCCCCOC(C)=O [pentyl acetate] | > 40 | > 40 | > 40 |  |
| CC(=O)CCC=C(C)C [6-methyl-5-hepten-2-one] |  |  |  | Ki (PameOBP3): > 40 µM; Ki (PameOBP1; [4]): > 40 µM; Ki (PameOBP2; [5]): > 40 µM |

Further lines, with some results ahead:

| Ki (PameOBP3; [1]) [µM] | Ki (PameOBP1; [2]) [µM] | Ki (PameOBP2; [3]) [µM] | Compound | further results |
| --- | --- | --- | --- | --- |
| > 40 | > 40 | > 40 | CCC/C=C/COC(C)=O [trans-2-hexenyl acetate] |  |
| > 40 | > 40 | > 40 | CCCCCC(C)O (stereo not drawn) [2-heptanol] |  |
| > 40 | > 40 | > 40 | C=C1C2CCC(C2)C1(C)C (stereo not drawn) [camphene] |  |
| > 40 | > 40 | > 40 | CCCCCCOC(=O)CCC [hexyl butyrate] |  |
| > 40 | > 40 | > 40 | CCCC(O)CC (stereo not drawn) [3-hexanol] |  |
| > 40 | > 40 | > 40 | CCCCCCCCCCC=O [undecanal] |  |
| > 40 | > 40 | > 40 | CC/C=C\CCOC(=O)CCC [cis-3-hexenyl butyrate] |  |
|  | > 40 | 26.6 ± 2.79 | C=CC(C)(O)CCC=C(C)CCC=C(C)C (mixture of isomers) [Nerolidol] | IC50 (PameOBP1; [6]): > 40 µM; IC50 (PameOBP2; [7]): 32.9 ± 4.21 µM |
|  | 22.5 ± 2.6 | > 40 | CC/C=C\CCOC(=O)CCCCC [Cis-3-hexenyl hexanoate] | IC50 (PameOBP1; [6]): 24.6 ± 1.9 µM; IC50 (PameOBP2; [7]): > 40 µM |
| > 40 | > 40 | > 40 | CCCCCCO [1-hexanol] |  |
| > 40 | > 40 | > 40 | OCCc1ccccc1 [phenethyl alcohol] |  |
|  | > 40 | 6.97 ± 0.72 | CC(=O)CC/C=C(\C)CCC=C(C)C [Geranylacetone] | IC50 (PameOBP1; [6]): > 40 µM; IC50 (PameOBP2; [7]): 8.62 ± 0.68 µM |
| > 40 | > 40 | > 40 | CCCCCC(C)=O [2-heptanone] |  |
|  | > 40 | 32.6 ± 2.95 | CC(=O)OC/C=C(\C)CCC=C(C)C [Geranyl acetate] | IC50 (PameOBP1; [6]): > 40 µM; IC50 (PameOBP2; [7]): 40 ± 3.16 µM |
| > 40 | > 40 | > 40 | CCCCCCCCCCCCCCCCC [heptadecane] |  |
| > 40 | > 40 | > 40 | CCCC(=O)OCC [ethyl butyrate] |  |
| > 40 | > 40 | > 40 | CCCCCCCOC(C)=O [heptyl acetate] |  |
| > 40 | > 40 | > 40 | CC/C=C\CCOC(C)=O [cis-3-hexenyl acetate] |  |
|  | 0.92 ± 0.06 | 0.53 ± 0.06 | CC(C)=CCC/C(C)=C/CC/C(C)=C/CO [Farnesol] | IC50 (PameOBP1; [6]): 1.01 ± 0.09 µM; IC50 (PameOBP2; [7]): 0.65 ± 0.07 µM |
